These results are taken from patent US20210327553A1, “PREDICTION OF ADVERSE DRUG REACTION BASED ON MACHINE-LEARNED MODELS USING PROTEIN FUNCTION SCORES AND CLINICAL FACTORS” (Cipherome, Inc., priority 2020, published 2021).

For one data set, the system named is COVID-19. To be noted: limited in-vitro and anecdotal data; cited from earlier work.
For data set [1] the following is noted: prolonged use in patients with liver or kidney problems or immunosuppressed; cited from earlier work.
Data set [2] is described as follows: Retrospective UK Biobank analysis of warfarin ADR records within first 90 days of administration. It is filed as in vivo. To be noted: n=612, ADR record (ICD9/10) within first 90 days of warfarin administration. The method, then: A retrospective analysis was conducted using genomic and phenotypic data from the UK Biobank (FIG. 2). […] Most common warfarin ADRs listed in the health registry data included non-traumatic, hemorrhage, gastrointestinal bleeding, and “ADRs due to anticoagulant use”.

`CCN(CC)CCCC(C)Nc1ccnc2cc(Cl)ccc12` (centres unmarked) [chloroquine]: in the data set with COVID-19, the “in-vitro activity against COVID-19” value is listed as “have in-vitro activity against COVID-19”. The cardiotoxicity result in data set [1] is “cadiotoxicity (prolonged QT syndrome of irregular heartbeats)”.
`CC(=O)CC(c1ccccc1)c1c(O)c2ccccc2oc1=O` (centres unmarked) [warfarin] yielded an ADR prevalence in data set [2] of 4.41%.
Turning to `CCN(CCO)CCCC(C)Nc1ccnc2cc(Cl)ccc12` (centres unmarked) [hydroxychloroquine], the “in-vitro activity against COVID-19” value in the data set on COVID-19 is recorded as “have in-vitro activity against COVID-19”. Also, the cardiotoxicity result in data set [1] is on record as “cadiotoxicity (prolonged QT syndrome of irregular heartbeats)”.
